{"source": "patent US20050014700A1", "about": "“Cbi analogues of cc-1065 and the duocarmycins” (priority 2001, published 2005)", "key": {"[1]": {"system": "L1210", "experiment": "cellular functional assay for L1210 cytotoxic activity", "assay_type": "cell-based", "method": "For comparison, the L1210 IC50 for (+)-N-Boc-CBI, which lacks an attached DNA binding domain, is 80 nM (80,000 pM)."}, "[2]": {"system": "w794 duplex DNA (SV40 nucleosomal DNA insert in M13mp10)", "experiment": "DNA alkylation efficiency and selectivity, thermally-induced strand cleavage of 5′ end-labeled duplex DNA (PAGE)", "assay_type": "biochemical", "conditions": "for concentration at which DNA alkylation is detectable: 25° C., 24 hours", "from_the_text": "The DNA alkylation properties of the compounds including those of CBI-X9-Y9 (24), CBI-X11-Y9 (25) and CBI-X10-Y10 (26) (FIG. 7) were examined within a 150 base-pair segment of duplex DNA and compared with (+)-duocarmycin SA (2), (+)-CBI-CDPI2 (27) and (+)-CBI-indole2 (28). One clone of phage M13mp10 was selected for the study that contained the SV40 nucleosomal DNA insert w794 (nucleotide no. 5238-138) (Ambrose, C., et al., J. Mol. Biol. 1989, 210, 255). The alkylation site identification and the assessment of the relative selectivity among the available sites was obtained by thermally-induced strand cleavage of the singly 5′ end-labeled duplex DNA after exposure to the agents. After treatment of the end-labeled duplex DNA with a range of agent concentrations, the unbound agent was removed by EtOH precipitation of the DNA. Redissolution of the DNA in aqueous buffer, thermolysis (100° C., 30 min) to induce strand cleavage at the sites of DNA alkylation, denaturing high resolution polyacrylamide gel electrophoresis (PAGE) adjacent to Sanger dideoxynucleotide sequencing standards, and autoradiography led to identification of the DNA cleavage and alkylation sites (Boger, D. L., et al., Tetrahedron 1991, 47, 2661).\nThe preparation of singly ^32P 5′ end-labeled double-stranded DNA, the agent binding studies, gel electrophoresis, and autoradiography were conducted according to procedures described in full detail elsewhere.^28 Eppendorf tubes containing the 5′ end-labeled DNA (9 μL) in TE buffer (10 mM Tris, 1 mM EDTA, pH 7.5) were treated with the agent in DMSO (1 μL at the specified concentration). The solution was mixed by vortexing and brief centrifugation and subsequently incubated at 25° C. for 24 hours. The covalently modified DNA was separated from the unbound agent by EtOH precipitation and resuspended in TE buffer (10 μL). The solution of DNA in an Eppendorf tube sealed with Parafilm was warmed at 100° C. for 30 min to introduce cleavage at the alkylation sites, allowed to cool to 25° C., and centrifuged. Formamide dye (0.03% xylene cyanol FF, 0.03% bromophenol blue, 8.7% Na2EDTA 250 mM) was added (5 μL) to the supernatant. Prior to electrophoresis, the sample was denatured by warming at 100° C. for 5 min, placed in an ice bath, and centrifuged, and the supernatant (3 μL) was loaded directly onto the gel. Sanger dideoxynucleotide sequencing reactions were run as standards adjacent to the reaction samples. Polyacrylamide gel electrophoresis (PAGE) was run on an 8% sequencing gel under denaturing conditions (8 M urea) in TBE buffer (100 mM Tris, 100 mM boric acid, 0.2 mM Na2EDTA) followed by autoradiography."}, "[3]": {"system": "L1210", "conditions": "previous study; additional heteroatom in carboxylate bearing aromatic ring; cited from earlier work"}, "[4]": {"system": "w794 duplex DNA (SV40 nucleosomal DNA insert in M13mp10)", "conditions": "cited from earlier work; for DNA alkylation efficiency compared to parent (+)-CBI-CDPI (21) / DNA alkylation selectivity compared to parent (+)-CBI-CDPI (21): previous study"}}, "note": "Read-outs that look alike come from different tables or passages of the source.", "data": [{"molecule": "1-(Chloromethyl)-5-hydroxy-3-{[3-[2-(tert-Butoxycarbonylamino-1,3-thiazol-4-yl) carbonyl]-1,2-dihydro(3H-pyrrolo[3,2-e]indol)-7-yl)carbonyl}-1,2-dihydrobenzo[e]indole [X11-Y7]", "values": [{"measurement": "IC50", "setting": "[1]", "value": 5, "unit": "pM"}]}, {"molecule": "1-(Chloromethyl)-5-hydroxy-3-{[3-[4-(tert-Butoxycarbonylamino)-1-methylpyrrol-2-yl)-carbonyl]-1,2-dihydro(3H-pyrrolo[3,2-e]indol)-7-yl)carbonyl}-1,2-dihydrobenzo[e]indole [X11-Y10]", "values": [{"measurement": "IC50", "setting": "[1]", "value": 5, "unit": "pM"}]}, {"molecule": "1-(Chloromethyl)-5-hydroxy-3-{[4-[4-(tert-Butoxycarbonylamino)-1-methylpyrrol-2-yl)carbonyl]amino-1-methylpyrrol-2-yl]carbonyl}-1,2-dihydrobenzo[e]indole [X10-Y10]", "values": [{"measurement": "IC50", "setting": "[1]", "value": 440, "unit": "pM"}, {"measurement": "DNA alkylation effectiveness relative to N-Boc-CBI", "setting": "[2]; comparable reaction conditions", "value": "10-100 fold"}, {"measurement": "lower DNA alkylation efficiency compared to 25", "setting": "[2]; w794 DNA", "value": "100-1000 fold"}, {"measurement": "concentration at which DNA alkylation is detectable", "setting": "[2]; w794 DNA", "value": "10^−3 M"}]}, {"molecule": "1-(Chloromethyl)-5-hydroxy-3-{[4-[4-(tert-Butoxycarbonylaminothiophen-2-yl)carbonyl]aminothiophen-2-yl]carbonyl}-1,2-dihydrobenzo[e]indole [X8-Y8]", "values": [{"measurement": "IC50", "setting": "[1]", "value": 290, "unit": "pM"}]}, {"molecule": "CC(C)(C)OC(=O)N1CC2CC23C1=CC(=O)c1ccccc13", "note": "(single isomer, unassigned; (+)) [(+)-N-Boc-CBI]", "values": [{"measurement": "IC50", "setting": "[1]", "value": 80000, "unit": "pM"}]}, {"molecule": "CC(C)(C)OC(=O)N1CCc2c1ccc1[nH]c(C(=O)N3CCc4c3ccc3[nH]c(C(=O)N5CC(CCl)c6c5cc(O)c5ccccc65)cc43)cc21", "note": "(centres unmarked) [X11-Y11]", "values": [{"measurement": "IC50", "setting": "[1]", "value": 5, "unit": "pM"}]}, {"molecule": "CC(C)(C)OC(=O)Nc1ccc2[nH]c(C(=O)N3CCc4c3ccc3[nH]c(C(=O)N5CC(CCl)c6c5cc(O)c5ccccc65)cc43)cc2c1", "note": "(centres unmarked) [X11-Y14, 1-(Chloromethyl)-5-hydroxy-3-{[3-[5-(tert-Butoxycarbonylaminoindole-2-yl)carbonyl]-1,2-dihydro(3H-pyrrolo[3,2-e]indol)-7-yl)carbonyl}-1,2-dihydrobenzo [e]indole]", "values": [{"measurement": "IC50", "setting": "[1]", "value": 7, "unit": "pM"}]}, {"molecule": "Cn1cc(NC(=O)OC(C)(C)C)nc1C(=O)Nc1cn(C)c(C(=O)N2CC(CCl)c3c2cc(O)c2ccccc32)n1", "note": "(centres unmarked) [compound 24]", "values": [{"measurement": "concentration at which DNA alkylation is detectable", "setting": "[2]; w794 DNA", "value": "> 10^−3 M"}]}, {"molecule": "NC(=O)N1CCc2c1ccc1[nH]c(C(=O)N3CCc4c3ccc3[nH]c(C(=O)N5C[C@H]6C[C@@]67C5=CC(=O)c5ccccc57)cc43)cc21", "note": "[compound 27, (+)-CBI-CDPI2]", "values": [{"measurement": "alkylation of the minor 5′-ACTAA-3′ site", "setting": "[2]; w794 DNA", "value": "neither 27 or 28 alkylate the minor 5′-ACTAA-3′ site to a significant extent"}]}, {"molecule": "(+)-CBI-CDPBI", "values": [{"measurement": "decrease in cytotoxic activity relative to (+)-CBI-CDPI (21)", "setting": "[3]", "value": 40, "unit": "fold"}, {"measurement": "DNA alkylation efficiency compared to parent (+)-CBI-CDPI (21)", "setting": "[4]", "value": "analogous decrease in the DNA alkylation efficiency"}, {"measurement": "DNA alkylation selectivity compared to parent (+)-CBI-CDPI (21)", "setting": "[4]", "value": "no alteration in the alkylation selectivity"}]}, {"molecule": "(+)-CBI-CDPBO", "values": [{"measurement": "decrease in cytotoxic activity relative to (+)-CBI-CDPI (21)", "setting": "[3]", "value": 40, "unit": "fold"}, {"measurement": "DNA alkylation efficiency compared to parent (+)-CBI-CDPI (21)", "setting": "[4]", "value": "analogous decrease in the DNA alkylation efficiency"}, {"measurement": "DNA alkylation selectivity compared to parent (+)-CBI-CDPI (21)", "setting": "[4]", "value": "no alteration in the alkylation selectivity"}]}, {"molecule": "(+)-CBI-CDPI [compound 21]", "values": [{"measurement": "alkylation of the minor 5′-ACTAA-3′ site", "setting": "[4]; w794 DNA, prior study", "value": "does"}]}, {"molecule": "(+)-CBI-indole2 [compound 28]", "values": [{"measurement": "alkylation of the minor 5′-ACTAA-3′ site", "setting": "[2]; w794 DNA", "value": "neither 27 or 28 alkylate the minor 5′-ACTAA-3′ site to a significant extent"}]}]}
